Test results reported in US8415469B2, “Compounds and methods for kinase modulation, and indications therefor” (Plexxikon Inc., priority 2005, dated 2013).

Assays:
Assay type in all cases: biochemical
Fak = biological target: T1, Fak (Homo sapiens, UniProt Q05397); experiment: AlphaScreen kinase assay, Fak; details: read-out: IC50, activity toward kinase Fak
T1 construct: P1358.pFastBacHtb FAK S411-Q686-X; His6 with pFastBacHTb leader (TEV site) (N); made in house; host or cells: Sf9 (baculovirus)

Jnk3 = biological target: T2, Jnk3 (Homo sapiens, UniProt P53779); experiment: AlphaScreen kinase assay, Jnk3; details: read-out: IC50, activity toward kinase Jnk3
T2 construct: purchased Upstate Biotechnology

B-Raf = biological target: T3, B-Raf (Homo sapiens, UniProt P15056); experiment: AlphaScreen kinase assay, B-Raf; details: read-out: IC50, activity toward kinase B-Raf
T3 construct: purchased Upstate Biotechnology

B-Raf V600E = biological target: T4, B-Raf V600E (Homo sapiens, UniProt P15056, V600E); experiment: AlphaScreen kinase assay, B-Raf V600E; details: read-out: IC50, activity toward kinase B-Raf V600E
T4 construct: P4254. pFastBacBD-CDC37 BRAF D437-K722-X, V600E; His6 with pFastBac HT leader (TEV site) (N); made in house; host or cells: Sf9 (baculovirus; chaperone CDC37 co-expressed)
Description: (§1) AlphaScreen assays were done using compounds dissolved in DMSO to a concentration of 20 mM. The compounds were diluted accordingly to the desired final concentrations in each sample well, using 1:3 serial dilution for a total of 8 concentration points. Plates were prepared such that each kinase reaction is 20 μl in 1× kinase buffer, 5% DMSO and 10 μM ATP. After incubation of the kinase reaction for 1 hour at room temperature, 5 μl of donor beads in stop buffer (50 mM EDTA in 1× kinase buffer) was added, the sample was mixed and incubated for 20 minutes at room temperature before adding 5 μl of acceptor beads in stop buffer. The samples were incubated for 60 minutes at room temperature and the signal per well was read on AlphaQuest reader.

Src = biological target: T5, Src (Homo sapiens, UniProt P12931); experiment: AlphaScreen kinase assay, Src; details: read-out: IC50, activity toward kinase Src
T5 construct: P1144. pET-N6 BI-PTP SRC V86-L536-X; made in house

Kit = biological target: T6, Kit (Homo sapiens, UniProt P10721); experiment: AlphaScreen kinase assay, Kit; details: read-out: IC50, activity toward kinase Kit
T6 construct: P1332.N6 BI PTP KIT M552-K948-X COD; His6 (N); made in house; host or cells: E. coli (PTP1B co-expressed)

FGFR1 = biological target: T7, FGFR1 (Homo sapiens, UniProt P11362, C488A/C584S); experiment: AlphaScreen kinase assay, FGFR1; details: read-out: IC50, activity toward kinase FGFR
T7 construct: P1351.pET N6 BI-PTP FGFR A458-E765-X C488A, C584S; made in house; host or cells: E. coli (PTP1B co-expressed)

Fms = biological target: T8, Fms (Homo sapiens, UniProt P07333); experiment: AlphaScreen kinase assay, Fms; details: read-out: IC50, activity toward kinase Fms
T8 construct: purchased Upstate Biotechnology
Description: as §1

Btk = biological target: T9, Btk (Homo sapiens, UniProt Q06187); experiment: Z'-Lyte FRET kinase assay (Invitrogen), Btk; details: read-out: IC50, activity toward kinase Btk
T9 construct: purchased Invitrogen (assay run by Invitrogen)
Text: For example, direct radiometric, indirect FRET or AlphaScreen assays may be used to assess the level of phosphorylation of a substrate in the presence of test compounds in order to determine the inhibitory affect of the compound on the kinase. […] For these assays, compounds of the invention were screened by Invitrogen using Z′-Lyte™ kinase assay.
Briefly, the Invitrogen kinase assay involves use of a specific peptide substrate optimized for each kinase, containing a fluorophore at each end that make up the FRET pair. The peptide sensitivity to proteolytic cleavage depends on phosphorylation of the peptide. Non-phosphorylated peptide is cleaved by a protease while peptide phosphorylated by the kinase is not cleaved. Cleavage of the peptide disrupts the FRET between the donor (coumarin) and acceptor (fluorescein) fluorophores, resulting in an increase in the ratio of donor emission to acceptor emission. The emission ratio of coumarin to fluorescein is used to assess the reaction progress. […] Thus, the assay involves a kinase reaction in the presence of varying concentrations of a given compound, a development reaction with site specific protease, and detection of the fluorescent emission ratio of coumarin and fluorscein. […] Reaction conditions for each kinase are determined to provide optimal reaction times, incubation temperature, kinase and ATP concentrations. Test samples are made up in 1× kinase buffer (50 mM HEPES pH 7.5, 50 mM MgCl2, 5 mM EGTA, 0.05% BRIJ-35) and compound at desired concentration prepared in DMSO such that the final DMSO is 1%. […] All kinase except for MAP2K1 were at 10 μM ATP in the kinase reaction, while MAP2K1 was at 100 μM. Samples are mixed and the kinase reaction is incubated 1 hour at room temperature, after which 5 μl of development solution is added and mixed. After incubation for another 1 hour at room temperature, 5 μl of stop reagent is added to each sample and mixed. The fluorescence signals are measured to determine the emission ratio.

Jnk1 = biological target: T10, Jnk1 (Homo sapiens, UniProt P45983); experiment: AlphaScreen kinase assay, Jnk1; details: read-out: IC50, activity toward kinase Jnk1
T10 construct: purchased Upstate Biotechnology

Flt1 = biological target: T11, Flt1 (Homo sapiens, UniProt P17948); experiment: AlphaScreen kinase assay, Flt1; details: read-out: IC50, activity toward kinase Flt1
T11 construct: P1826.pETN6 BI-PTP FLT1 M799-D1165-X WT; His6 (N); made in house; host or cells: E. coli (PTP1B co-expressed)
T11 sequence (P17948 with tags, fused parts or gaps): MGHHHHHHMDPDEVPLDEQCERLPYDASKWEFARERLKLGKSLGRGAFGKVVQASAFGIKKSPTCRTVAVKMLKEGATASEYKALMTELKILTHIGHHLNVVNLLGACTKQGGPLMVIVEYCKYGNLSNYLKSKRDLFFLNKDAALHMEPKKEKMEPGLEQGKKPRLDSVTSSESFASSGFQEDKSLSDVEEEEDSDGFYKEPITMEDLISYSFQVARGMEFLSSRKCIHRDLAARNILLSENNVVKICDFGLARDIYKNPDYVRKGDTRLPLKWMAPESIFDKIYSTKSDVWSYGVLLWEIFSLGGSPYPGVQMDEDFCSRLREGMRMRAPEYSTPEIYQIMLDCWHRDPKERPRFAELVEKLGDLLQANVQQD
Description: as §1

Jnk2 = biological target: T12, Jnk2 (Homo sapiens, UniProt P45984); experiment: AlphaScreen kinase assay, Jnk2; details: read-out: IC50, activity toward kinase Jnk2
T12 construct: purchased Roche Protein Expression Group (Indianapolis, IN)
Text: AlphaScreen assay was used to screen additional kinases. The assay is similarly dependent on the phosphorylation of a peptide substrate. In this assay, an antibody that recognizes phosphorylated substrate is bound to an acceptor bead. The peptide substrate is attached to biotin, which binds to a donor head that contains streptavidin. Thus phosphorylated substrate is bound by antibody and streptavidin, bringing the donor and acceptor heads into close proximity when kinase is not inhibited. The donor produces singlet oxygen which results in emission from the acceptor when they are in close proximity. Conversely, when kinase is inhibited, the donor and acceptor beads are not associated and the emission from the acceptor is reduced.
AlphaScreen assays were done using compounds dissolved in DMSO to a concentration of 20 mM. The compounds were diluted accordingly to the desired final concentrations in each sample well, using 1:3 serial dilution for a total of 8 concentration points.

c-Raf-1 = biological target: T13, c-Raf-1 (Homo sapiens, UniProt P04049); experiment: AlphaScreen kinase assay, c-Raf-1; details: read-out: IC50, activity toward kinase c-Raf-1
T13 construct: purchased Upstate Biotechnology

Ret = biological target: T14, Ret (Homo sapiens, UniProt P07949); experiment: AlphaScreen kinase assay, Ret; details: read-out: IC50, activity toward kinase Ret
T14 construct: P1378.pET-SF BI-PTP RET H661-R1012 HIS; made in house
T14 sequence (P07949 with tags, fused parts or gaps): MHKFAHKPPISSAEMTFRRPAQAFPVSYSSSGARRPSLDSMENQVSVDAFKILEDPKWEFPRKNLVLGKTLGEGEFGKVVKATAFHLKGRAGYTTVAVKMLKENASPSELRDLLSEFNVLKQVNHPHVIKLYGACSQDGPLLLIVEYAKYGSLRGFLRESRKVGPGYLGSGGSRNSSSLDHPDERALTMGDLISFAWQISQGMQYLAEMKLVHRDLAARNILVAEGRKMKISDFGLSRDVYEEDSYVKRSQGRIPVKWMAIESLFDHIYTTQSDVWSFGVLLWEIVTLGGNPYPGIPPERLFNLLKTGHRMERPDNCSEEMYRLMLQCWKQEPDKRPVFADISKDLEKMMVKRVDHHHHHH

Measured: IC50

T6 sequence (P10721 with tags, fused parts or gaps): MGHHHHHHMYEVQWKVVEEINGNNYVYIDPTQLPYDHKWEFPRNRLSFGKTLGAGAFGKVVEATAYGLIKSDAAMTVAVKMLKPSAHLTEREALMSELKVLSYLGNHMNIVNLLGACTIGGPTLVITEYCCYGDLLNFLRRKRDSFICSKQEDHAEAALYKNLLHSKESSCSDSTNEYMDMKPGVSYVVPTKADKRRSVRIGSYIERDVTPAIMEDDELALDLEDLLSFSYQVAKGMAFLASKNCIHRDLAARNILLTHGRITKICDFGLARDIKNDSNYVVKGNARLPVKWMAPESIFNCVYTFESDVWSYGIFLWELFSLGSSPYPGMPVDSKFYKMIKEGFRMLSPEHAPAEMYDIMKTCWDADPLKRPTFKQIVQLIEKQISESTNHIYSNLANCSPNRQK
T3 sequence (P15056 whole entry): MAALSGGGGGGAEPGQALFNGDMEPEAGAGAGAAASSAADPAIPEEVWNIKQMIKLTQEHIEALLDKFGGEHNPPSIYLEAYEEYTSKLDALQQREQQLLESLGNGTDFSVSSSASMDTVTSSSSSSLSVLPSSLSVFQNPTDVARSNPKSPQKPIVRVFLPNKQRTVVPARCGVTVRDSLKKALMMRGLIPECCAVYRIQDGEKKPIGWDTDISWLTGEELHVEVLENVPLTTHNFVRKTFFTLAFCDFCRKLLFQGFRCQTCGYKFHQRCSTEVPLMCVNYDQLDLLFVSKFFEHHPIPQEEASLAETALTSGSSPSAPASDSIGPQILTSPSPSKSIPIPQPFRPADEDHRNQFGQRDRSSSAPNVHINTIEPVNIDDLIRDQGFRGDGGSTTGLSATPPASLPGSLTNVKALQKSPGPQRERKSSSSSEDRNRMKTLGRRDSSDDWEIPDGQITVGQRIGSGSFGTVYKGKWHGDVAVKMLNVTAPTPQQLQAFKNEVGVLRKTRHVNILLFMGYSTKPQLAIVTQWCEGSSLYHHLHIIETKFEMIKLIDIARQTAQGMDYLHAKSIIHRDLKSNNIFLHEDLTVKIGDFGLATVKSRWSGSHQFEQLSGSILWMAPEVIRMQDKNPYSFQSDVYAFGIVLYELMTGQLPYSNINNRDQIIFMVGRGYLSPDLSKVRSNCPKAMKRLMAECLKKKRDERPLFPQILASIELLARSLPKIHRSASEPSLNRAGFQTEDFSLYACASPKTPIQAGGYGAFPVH
T12 sequence (P45984 whole entry): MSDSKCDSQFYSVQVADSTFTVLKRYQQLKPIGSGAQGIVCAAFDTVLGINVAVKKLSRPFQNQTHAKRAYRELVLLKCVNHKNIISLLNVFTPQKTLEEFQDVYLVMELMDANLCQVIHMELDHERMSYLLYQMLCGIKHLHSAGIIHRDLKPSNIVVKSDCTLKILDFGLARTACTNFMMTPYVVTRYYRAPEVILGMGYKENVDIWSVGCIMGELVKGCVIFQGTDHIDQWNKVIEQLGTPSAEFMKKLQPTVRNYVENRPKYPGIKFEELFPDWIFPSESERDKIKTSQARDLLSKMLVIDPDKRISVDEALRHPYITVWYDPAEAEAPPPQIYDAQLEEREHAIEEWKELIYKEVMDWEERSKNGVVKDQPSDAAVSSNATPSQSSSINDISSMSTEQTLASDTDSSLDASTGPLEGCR
T7 sequence (P11362 458-765 C488A/C584S): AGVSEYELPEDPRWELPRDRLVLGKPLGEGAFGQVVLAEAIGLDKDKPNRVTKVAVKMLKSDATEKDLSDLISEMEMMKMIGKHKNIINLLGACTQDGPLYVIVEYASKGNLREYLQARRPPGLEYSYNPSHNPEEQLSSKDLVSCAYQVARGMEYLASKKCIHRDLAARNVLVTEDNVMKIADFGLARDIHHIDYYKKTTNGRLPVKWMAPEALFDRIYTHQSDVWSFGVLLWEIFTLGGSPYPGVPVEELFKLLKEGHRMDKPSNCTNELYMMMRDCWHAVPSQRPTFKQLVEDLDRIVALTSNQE
T9 sequence (Q06187 whole entry): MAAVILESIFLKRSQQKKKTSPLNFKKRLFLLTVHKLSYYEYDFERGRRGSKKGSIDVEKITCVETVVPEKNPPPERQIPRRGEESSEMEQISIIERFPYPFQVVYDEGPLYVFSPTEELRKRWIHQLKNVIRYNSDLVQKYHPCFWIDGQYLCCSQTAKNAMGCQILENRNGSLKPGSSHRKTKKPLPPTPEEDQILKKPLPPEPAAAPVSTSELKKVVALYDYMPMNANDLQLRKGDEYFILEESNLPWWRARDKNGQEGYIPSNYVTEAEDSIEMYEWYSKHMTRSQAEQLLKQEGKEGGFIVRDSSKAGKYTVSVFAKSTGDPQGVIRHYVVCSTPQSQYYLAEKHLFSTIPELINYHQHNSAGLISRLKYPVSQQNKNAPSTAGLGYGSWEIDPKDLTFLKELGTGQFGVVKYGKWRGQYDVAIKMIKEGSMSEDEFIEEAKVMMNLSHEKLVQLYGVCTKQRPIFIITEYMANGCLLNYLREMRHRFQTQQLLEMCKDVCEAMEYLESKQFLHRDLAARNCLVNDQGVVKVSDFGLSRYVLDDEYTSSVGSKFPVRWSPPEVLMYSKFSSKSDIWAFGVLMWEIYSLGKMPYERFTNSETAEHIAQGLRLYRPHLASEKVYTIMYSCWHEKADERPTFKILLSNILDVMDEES
T1 sequence (Q05397 411-686): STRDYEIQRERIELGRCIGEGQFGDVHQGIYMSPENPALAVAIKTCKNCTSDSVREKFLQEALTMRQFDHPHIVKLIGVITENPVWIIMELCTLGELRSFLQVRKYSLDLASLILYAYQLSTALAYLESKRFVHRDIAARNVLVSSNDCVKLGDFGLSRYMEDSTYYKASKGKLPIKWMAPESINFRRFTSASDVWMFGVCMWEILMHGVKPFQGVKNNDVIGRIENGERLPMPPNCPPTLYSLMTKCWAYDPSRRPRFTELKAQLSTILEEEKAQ
T8 sequence (P07333 20-972): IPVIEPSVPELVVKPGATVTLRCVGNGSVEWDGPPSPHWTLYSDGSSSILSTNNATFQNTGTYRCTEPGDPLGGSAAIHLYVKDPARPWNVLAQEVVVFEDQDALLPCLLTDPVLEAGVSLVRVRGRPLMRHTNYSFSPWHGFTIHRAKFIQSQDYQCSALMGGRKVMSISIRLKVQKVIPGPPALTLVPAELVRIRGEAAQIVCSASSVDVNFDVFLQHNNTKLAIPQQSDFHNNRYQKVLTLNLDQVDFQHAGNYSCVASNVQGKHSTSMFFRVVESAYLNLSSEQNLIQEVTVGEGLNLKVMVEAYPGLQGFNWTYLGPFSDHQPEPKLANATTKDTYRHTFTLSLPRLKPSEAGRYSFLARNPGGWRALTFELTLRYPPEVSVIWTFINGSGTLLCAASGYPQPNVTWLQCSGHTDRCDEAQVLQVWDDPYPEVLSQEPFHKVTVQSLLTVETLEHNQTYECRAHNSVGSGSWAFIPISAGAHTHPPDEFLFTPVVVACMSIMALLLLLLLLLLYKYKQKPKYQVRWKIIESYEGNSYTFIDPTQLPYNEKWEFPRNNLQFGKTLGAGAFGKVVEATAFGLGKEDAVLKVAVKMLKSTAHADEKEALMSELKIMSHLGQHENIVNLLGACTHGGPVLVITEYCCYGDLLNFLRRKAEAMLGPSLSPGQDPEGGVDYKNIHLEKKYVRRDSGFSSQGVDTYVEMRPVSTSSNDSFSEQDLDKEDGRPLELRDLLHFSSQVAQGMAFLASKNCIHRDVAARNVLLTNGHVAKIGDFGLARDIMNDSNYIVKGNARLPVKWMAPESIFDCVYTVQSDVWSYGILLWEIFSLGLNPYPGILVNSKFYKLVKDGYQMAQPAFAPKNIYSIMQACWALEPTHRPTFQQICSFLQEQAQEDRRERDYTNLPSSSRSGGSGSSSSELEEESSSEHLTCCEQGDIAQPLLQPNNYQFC
T2 sequence (P53779 whole entry): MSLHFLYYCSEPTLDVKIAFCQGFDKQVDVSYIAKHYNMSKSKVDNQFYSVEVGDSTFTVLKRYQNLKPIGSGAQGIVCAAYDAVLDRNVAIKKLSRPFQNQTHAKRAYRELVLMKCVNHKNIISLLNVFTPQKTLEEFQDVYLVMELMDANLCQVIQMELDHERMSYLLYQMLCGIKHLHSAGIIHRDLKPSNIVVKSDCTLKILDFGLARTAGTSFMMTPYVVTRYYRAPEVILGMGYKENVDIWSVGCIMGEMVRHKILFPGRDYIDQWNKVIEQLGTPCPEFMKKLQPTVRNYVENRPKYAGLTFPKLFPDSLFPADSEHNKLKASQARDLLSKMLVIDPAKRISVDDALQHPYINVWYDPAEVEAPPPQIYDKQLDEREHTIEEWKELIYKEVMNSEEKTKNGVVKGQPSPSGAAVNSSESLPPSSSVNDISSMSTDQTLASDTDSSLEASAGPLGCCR
T4 sequence (P15056 with tags, fused parts or gaps V600E): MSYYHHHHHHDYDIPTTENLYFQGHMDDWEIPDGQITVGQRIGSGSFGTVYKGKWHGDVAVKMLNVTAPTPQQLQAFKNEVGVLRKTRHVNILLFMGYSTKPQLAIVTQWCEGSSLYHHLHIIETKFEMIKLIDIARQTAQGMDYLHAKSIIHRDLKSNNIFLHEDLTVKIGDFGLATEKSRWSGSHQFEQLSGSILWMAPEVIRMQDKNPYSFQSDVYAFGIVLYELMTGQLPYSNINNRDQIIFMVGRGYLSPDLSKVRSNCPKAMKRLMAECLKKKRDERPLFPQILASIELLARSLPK
T10 sequence (P45983 whole entry): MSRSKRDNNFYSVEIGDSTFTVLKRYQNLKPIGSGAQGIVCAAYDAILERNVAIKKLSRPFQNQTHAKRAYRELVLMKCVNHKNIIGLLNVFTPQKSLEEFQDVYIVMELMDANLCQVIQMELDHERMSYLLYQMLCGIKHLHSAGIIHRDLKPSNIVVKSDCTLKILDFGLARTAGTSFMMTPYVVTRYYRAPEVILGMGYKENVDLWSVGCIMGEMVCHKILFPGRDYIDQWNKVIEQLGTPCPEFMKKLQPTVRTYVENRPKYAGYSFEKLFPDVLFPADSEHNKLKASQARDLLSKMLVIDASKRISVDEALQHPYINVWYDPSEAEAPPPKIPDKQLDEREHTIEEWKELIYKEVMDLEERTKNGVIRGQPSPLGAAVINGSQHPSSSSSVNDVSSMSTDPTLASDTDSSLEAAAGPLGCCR

COc1ccc(C(=O)c2c[nH]c3ncc(-c4cccc(C(N)=O)c4)cc23)c(F)c1 [Compound P-1346]
not listed: Flt1 | Jnk2 | c-Raf-1 | Ret
≤ 10 µM: all other assays above

CCCS(=O)(=O)Nc1ccc(F)c(C(=O)c2c[nH]c3ncc(-c4cccc(C(=O)O)c4)cc23)c1F [Compound P-1266, 3-{3-[2,6-Difluoro-3-(propane-1-sulfonylamino)-benzoyl]-1H-pyrrolo[2,3-b]pyridin-5-yl}-benzoic acid]
not listed: Jnk3 | Jnk2 | c-Raf-1 | Ret
≤ 10 µM: all other assays above

O=C(Nc1cccc(C(=O)c2c[nH]c3ncc(-c4cccnc4)cc23)c1)Nc1cccc(C(F)(F)F)c1F [Compound P-1728, 1-(2-Fluoro-3-trifluoromethyl-phenyl)-3-[3-(5-pyridin-3-yl-1H-pyrrolo[2,3-b]pyridine-3-carbonyl)-phenyl]-urea]
≤ 10 µM: B-Raf | Jnk2 | B-Raf V600E | Fms

O=C(O)/C=C/c1ccc(-c2cnc3[nH]cc(C(=O)c4ccccc4F)c3c2)cc1 [Compound P-1473]
not listed: Kit | Flt1 | Jnk2 | c-Raf-1 | Ret
≤ 10 µM: all other assays above

CCCCOc1ccc(NC(=O)Nc2cccc(C(=O)c3c[nH]c4ncc(-c5cccnc5)cc34)c2)cc1 [Compound P-1729, 1-(4-Butoxy-phenyl)-3-[3-(5-pyridin-3-yl-1H-pyrrolo[2,3-b]pyridine-3-carbonyl)-phenyl]-urea]
≤ 10 µM: B-Raf | Jnk2 | B-Raf V600E | Fms

COc1ccc(F)c(C(=O)c2c[nH]c3ncc(-c4cccnc4)cc23)c1F [Compound P-1388, (2,6-Difluoro-3-methoxy-phenyl)-(5-pyridin-3-yl-1H-pyrrolo[2,3-b]pyridin-3-yl)-methanone]
not listed: Jnk3 | Jnk1 | Flt1 | Jnk2 | Ret
≤ 10 µM: all other assays above

CCCS(=O)(=O)Nc1ccc(F)c(C(=O)c2c[nH]c3ncc(/C=C/C(=O)O)cc23)c1F [Compound P-1269, 3-3-[2,6-difluoro-3-(propane-1-sulfonylamino)-benzoyl]-1H-pyrrolo[2,3-b]pyridin-5-yl-acrylic acid]
not listed: Jnk3 | Jnk1 | Jnk2 | c-Raf-1 | Ret
≤ 10 µM: all other assays above

O=C(c1c(F)cccc1F)c1c[nH]c2ncc(-c3cccnc3)cc12 [Compound P-1485]
≤ 10 µM: Fak | Jnk3 | B-Raf | B-Raf V600E | Src | FGFR1 | Fms | Btk

O=C(Nc1cccc(C(=O)c2c[nH]c3ncc(-c4cccnc4)cc23)c1)Nc1cc(C(F)(F)F)ccc1Cl [Compound P-1732, 1-(2-Chloro-5-trifluoromethyl-phenyl)-3-[3-(5-pyridin-3-yl-1H-pyrrolo[2,3-b]pyridine-3-carbonyl)-phenyl]-urea]
≤ 10 µM: B-Raf | Jnk2 | B-Raf V600E | Fms

CCNC(=O)COc1ccc(F)c(Cc2c[nH]c3ncc(-c4cccnc4)cc23)c1F [Compound P-1475, 2-[2,4-Difluoro-3-(5-pyridin-3-yl-1H-pyrrolo[2,3-b]pyridin-3-ylmethyl)-phenoxy]-N-ethyl-acetamide]
not listed: Jnk2 | c-Raf-1 | Ret
≤ 10 µM: all other assays above

O=C(Nc1ccc(F)c(C(=O)c2c[nH]c3ncc(-c4cccnc4)cc23)c1F)OCc1ccccc1 [Compound P-0302, [2,4-Difluoro-3-(5-pyridin-3-yl-1H-pyrrolo[2,3-b]pyridine-3-carbonyl)-phenyl]-carbamic acid benzyl ester]
not listed: Jnk3 | Jnk2
≤ 10 µM: all other assays above
